This passage reports IC50 results from PubChem BioAssay AID588574 (Sanford-Burnham Center for Chemical Genomics, 2011).

The target of the test is Caspase-3 (Homo sapiens) + Caspase-9 (Homo sapiens) (UniProt P42574+P55211). Kind of test: caspase-9/caspase-3 cascade inhibitors, dose response, selectivity assay, biochemical, fluorescence, uHTS hits (AID 588574). The conditions noted are these: LZ-caspase-9/caspase-3 coupled fluorogenic substrate.

Calls of active or inactive are those of the source. The rule behind the calls is not given here.

Caspase-3 (Homo sapiens) + Caspase-9 (Homo sapiens), sequence (P42574 whole entry, looked up): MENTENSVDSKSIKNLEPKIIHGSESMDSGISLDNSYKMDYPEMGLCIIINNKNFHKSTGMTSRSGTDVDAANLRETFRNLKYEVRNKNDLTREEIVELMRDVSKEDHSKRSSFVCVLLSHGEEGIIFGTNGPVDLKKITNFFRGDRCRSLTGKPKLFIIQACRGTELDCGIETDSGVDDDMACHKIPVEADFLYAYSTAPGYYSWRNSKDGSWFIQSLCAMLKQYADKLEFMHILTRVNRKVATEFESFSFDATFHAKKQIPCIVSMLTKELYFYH
Caspase-3 (Homo sapiens) + Caspase-9 (Homo sapiens), sequence (P55211 whole entry, looked up): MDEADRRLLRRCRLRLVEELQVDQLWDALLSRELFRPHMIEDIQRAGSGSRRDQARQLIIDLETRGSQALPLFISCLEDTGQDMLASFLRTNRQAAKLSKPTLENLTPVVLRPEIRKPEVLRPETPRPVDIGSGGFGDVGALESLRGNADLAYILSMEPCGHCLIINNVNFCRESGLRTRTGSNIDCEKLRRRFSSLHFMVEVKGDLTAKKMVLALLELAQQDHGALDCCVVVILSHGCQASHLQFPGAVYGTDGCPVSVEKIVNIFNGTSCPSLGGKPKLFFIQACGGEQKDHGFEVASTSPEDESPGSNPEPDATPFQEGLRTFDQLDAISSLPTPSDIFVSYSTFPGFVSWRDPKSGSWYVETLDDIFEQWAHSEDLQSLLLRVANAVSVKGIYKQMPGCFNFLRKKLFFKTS

Take `Cc1[nH]n(-c2ccccc2)c(=O)c1/C=N/Nc1nncc(-c2ccccc2)n1`: the IC50 (in general, the concentration at which inhibition is half-maximal) was 2.23 µM. In the case of `O=C1C(C2=C(O)c3ccccc3C2=O)=Nc2ccccc21` it was 5.3 µM; in that of `Oc1cccc(/C=N/Nc2cc(N3CCCC3)nc(N3CCCC3)n2)c1`, 12.5 µM; in that of `CC1(C)C=C2C(=NN(c3ccccc3)C(N)=C2C#N)CO1`, 4.31 µM. Regarding `O=C1C(O)=C(O)C(=O)c2ccccc21`, the IC50 is 10.2 µM. In the case of `CCCCCCc1cc2cc(-c3nnc(-c4ccccc4)o3)c(=O)oc2cc1O`, the IC50 is 6.31 µM. In the case of `CC(=O)N(Cc1ccc(F)cc1)C1=C(NCCc2ccccc2)C(=O)c2ccccc2C1=O` it was 8.49 µM; in that of `Oc1ccc(/C=N\Nc2cc(N3CCOCC3)nc(N3CCOCC3)n2)c(O)c1`, 57.9 µM. Regarding `Oc1ccc(/C=N/Nc2cc(N3CCCC3)nc(N3CCCC3)n2)cc1`, the IC50 is 5.44 µM. As to `CCN(CC)CCOC(=O)c1ccc(N/C=C(/C#N)c2nc(-c3ccc4c(c3)OCO4)cs2)cc1`, the IC50 is > 100 µM (inactive). On to `CC(C)c1ccc(/C=N/Nc2cc(N3CCOCC3)nc(N3CCOCC3)n2)cc1`, for which the IC50 is > 100 µM (inactive). `CCC(=O)N(C1=C(NC)C(=O)c2ccccc2C1=O)C(C)C`: the IC50 was 24.6 µM.

On to `CC1=NN(c2ccc(C(F)(F)F)cn2)C(=O)C1`, for which the IC50 was 8.21 µM.

For `COc1ccc(/C=N/Nc2cc(N3CCCC3)nc(N3CCCC3)n2)cc1`, the IC50 was 3.91 µM.

Take `Cc1ccc(NC2=C(NCCO)C(=O)c3ccccc3C2=O)cc1`: the IC50 is 6.91 µM. For `CCCCCCc1cc2cc(-c3nnc(-c4ccccc4OC)o3)c(=O)oc2cc1O`, the IC50 is 14.7 µM. For the compound `Oc1ccc(/C=N/Nc2cc(N3CCCC3)nc(N3CCCC3)n2)cc1O`, the IC50 is 10.7 µM. For the compound `CC1=NN(c2ccc(Cl)cc2)C(=O)C1C(c1ccccc1O)c1c(C)[nH]n(-c2ccc(Cl)cc2)c1=O` (stereo not drawn), the IC50 is 46.1 µM. As for `O=C1C(Cl)=C(NCCN2CCOCC2)C(=O)c2ccccc21`, the IC50 was 23.3 µM. Consider `O=C1C(Cl)=C(NCCN2CCCCC2)C(=O)c2ccccc21`, for which the IC50 was 6.08 µM. In the case of `O=c1cc(N/N=C/c2ccccc2)[nH]c(=O)[nH]1` it was 19.4 µM. In the case of `CN(C)c1cc(N/N=C\c2ccccc2)nc(N(C)C)n1` it was 3.53 µM; in that of `CCN(CC)CCOC(=O)c1ccc(N/C=C(/C#N)c2nc(-c3cc4ccccc4oc3=O)cs2)cc1`, > 100 µM (inactive); in that of `CC(C)CCC(C)N=Cc1c(O)n(Cc2ccccc2)c(=O)c2ccccc12` (stereo not drawn), 4.43 µM. In the case of `Oc1ccccc1/C=N/Nc1cc(N2CCCC2)nc(N2CCCC2)n1`, the IC50 was 2.51 µM. Under `CCCc1[nH]nc2c1C(c1ccc(OC)c(CSC3=NCCS3)c1)C(C#N)=C(N)O2` (stereo not drawn) stands 14.3 µM; under `CN(C)c1cc(N/N=C/c2ccccc2C(F)(F)F)nc(N(C)C)n1`, 6.79 µM.

Take `CCN(CC)CCCNC1=C(Cl)C(=O)c2ccccc2C1=O`: the IC50 was 16.1 µM. As for `COc1ccc(/C=N/Nc2cc(N(C)C)nc(N(C)C)n2)cc1`, the IC50 was 1.16 µM. Under `O=C1C(Cl)=C(NCc2cccnc2)C(=O)c2ccccc21` stands 8.43 µM; under `O=C(N/N=C/c1cc(Cl)cc([N+](=O)[O-])c1O)NC12CC3CC(CC(C3)C1)C2`, 9.15 µM.

For the compound `CCOC(=O)C1=C(c2ccccc2)NC(N)=NC1c1ccc(OCc2ccc(Cl)cc2)c(OC)c1` (stereo not drawn), the IC50 is 15.8 µM.

Regarding `CCOC(=O)C1=C(c2ccccc2)NC(N)=NC1c1ccc(OCc2ccc(C(=O)OC)cc2)cc1` (stereo not drawn), the IC50 was 16 µM. As for `O=[N+]([O-])c1ccc(N/N=C/c2ccc(O)c(O)c2O)c(S(=O)(=O)N2CCOCC2)c1`, the IC50 was 20.4 µM. Turning to `O/C=c1\ccc2cccc3nc(C(F)(F)F)nc1c23`, the IC50 is 11.8 µM. Turning to `CSc1ccc(C=NNc2ccc(S(=O)(=O)Nc3ccccc3C(=O)O)cc2[N+](=O)[O-])cc1`, the IC50 was 8.5 µM.

With `COc1ccc(NC2=C(NCCO)C(=O)c3ccccc3C2=O)cc1`, the IC50 is 10.6 µM.

For `CCN(CC)CCOC(=O)c1ccc(N/C=C(/C#N)c2nc(-c3ccc(OC)c(OC)c3)cs2)cc1`, the IC50 was > 100 µM (inactive).
